The text below walks through data of ChEMBL document CHEMBL1800066 (J Med Chem, 2011).

Values after ≈ are worked out from the molar mass of the structure shown.

The nature of series [1]: Antiproliferative activity against human GTL16 cells after 72 hrs. The settings on record: GTL 16, 72 h.
The target of series [2] is T1, Hepatocyte growth factor receptor (Homo sapiens, UniProt P08581).
Series [3] can be described thus: Plasma clearance in rat at 2 mg/kg, iv and 4 mg/kg, po. In kind it is ADME, organism-based.
The nature of series [4]: Half life in rat at 2 mg/kg, iv and 4 mg/kg, po. The series is classed as ADME, organism-based. The settings on record: in vivo.
Series [5] concerns the target Voltage-gated inwardly rectifying potassium channel KCNH2 (Homo sapiens, UniProt Q12809). Kind of series: Inhibition of Kv11.1 channel.
A short description of series [6]: Inhibition of potassium channel IKr.
Series [7] can be described thus: Volume of distribution at steady state in rat at 2 mg/kg, iv and 4 mg/kg, po. The series is classed as ADME, organism-based. The settings on record: in vivo, read-out: Vdss.
Series [8] in a line: Oral bioavailability in rat at 4 mg/kg. In kind it is ADME, organism-based. The note with it: in vivo.
Series [9] in a line: Half life in rat at 2 mg/kg, iv. The series is classed as ADME, organism-based. The note with it: in vivo. Details: dose 2 mg/kg, route intravenous.
Series [10] in a line: Plasma clearance in rat at 2 mg/kg, iv. The series is classed as ADME, organism-based. Also on record: dose 2 mg/kg, route intravenous.
The nature of series [11]: Volume of distribution at steady state in rat at 2 mg/kg, iv. The settings on record: in vivo, read-out: Vdss. Also on record: dose 2 mg/kg, route intravenous. The series is classed as ADME, organism-based.
Another series relates to Rattus norvegicus. Kind of series: Volume of distribution at steady state in rat at 1 mg/kg, iv and po. The series is classed as ADME, organism-based. Also on record: dose 1 mg/kg, route oral. The note with it: in vivo.
A short description of series [12]: Half life in rat at 1 mg/kg, iv and po. Also on record: dose 1 mg/kg, route oral. The settings on record: in vivo. In kind it is ADME, organism-based.
Series [13] in a line: Oral bioavailability in rat at 1 mg/kg. The series is classed as ADME, organism-based. The settings on record: in vivo.
Series [14] can be described thus: Plasma clearance in rat at 0.31 mg/kg, iv and 0.62 mg/kg, po. In kind it is ADME, organism-based.
Series [15] can be described thus: Volume of distribution at steady state in rat at 0.31 mg/kg, iv and 0.62 mg/kg, po. The series is classed as ADME, organism-based. The note with it: in vivo, read-out: Vdss.
The nature of series [16]: Half life in rat at 0.31 mg/kg, iv and 0.62 mg/kg, po. The series is classed as ADME, organism-based. The settings on record: in vivo.
Series [17] in a line: Oral bioavailability in rat at 0.62 mg/kg. The note with it: in vivo. The series is classed as ADME, organism-based.
The target in series [18] is T1, Hepatocyte growth factor receptor. Kind of series: Inhibition of c-MET overexpressed in human GTL-16 cells assessed as phosphorylation at C-terminal Y1349 after 2 hrs by Western blot analysis. The series is classed as cell-based.
Another series has as its target Cytochrome P450 3A4 (Homo sapiens, UniProt P08684). Kind of series: Inhibition of CYP3A4. The series is classed as ADME.
The next series deals with Cytochrome P450 2C9 (Homo sapiens, UniProt P11712). Kind of series: Inhibition of CYP2C9. In kind it is ADME.
In the next series the target is Cytochrome P450 2D6 (Homo sapiens, UniProt P10635). As to the kind of experiment: Inhibition of CYP2D6. In kind it is ADME.
A short description of series [19]: Lipophilicity, log P of the compound. The series is classed as physicochemical. The note with it: octanol/water.
Series [20] in a line: Solubility of the compound at pH 7.4. The series is classed as physicochemical. The note with it: buffer.

In series [1], `Cn1cc(-c2cnc3ccc4ccc(NS(=O)(=O)N5CCOCC5)cc4c(=O)c3c2)cn1` registered a half-maximal inhibitory concentration (IC50) of 11000 nM.

In [2], `CS(=O)(=O)Nc1ccc2c(=O)c3cc(-c4ccccc4)cnc3ccc2c1` came in with an IC50 above 10000 nM.

As for `Cn1cc(-c2cnc3ccc4ccc(NS(C)(=O)=O)cc4c(=O)c3c2)cn1`, the concentration for half-maximal inhibition (IC50) in series [1] is 1900 nM; in series [5], 10100 nM; in [6], 330 nM. Also, the clearance in series [3] came out at 40 mL/min/kg. In series [4], this molecule came in with a half-life of 0.5 h.

Regarding `CN(C)S(=O)(=O)Nc1ccc2ccc3ncc(-c4cnn(C)c4)cc3c(=O)c2c1`, the half-inhibitory concentration (IC50) in [5] and in [6] was above 30000 nM throughout.

In [1], `CCCn1cc(-c2cnc3ccc4ccc(NS(=O)(=O)N(C)C)cc4c(=O)c3c2)cn1` displayed an IC50 of 780 nM.

As for `CN(C)S(=O)(=O)Nc1ccc2ccc3ncc(-c4cnn(CC(=O)N5CCOCC5)c4)cc3c(=O)c2c1`, the half-maximal inhibitory concentration (IC50) in series [1] was found to be 1700 nM.

In [1], `CN(C)CCCn1cc(-c2cnc3ccc4ccc(NS(=O)(=O)N(C)C)cc4c(=O)c3c2)cn1` displayed an IC50 of 1100 nM.

For the molecule `CN(C)S(=O)(=O)Nc1ccc2ccc3ncc(-c4cnn(CCCO)c4)cc3c(=O)c2c1`, the IC50 in series [1] was 370 nM.

Take `CN(C)S(=O)(=O)Nc1ccc2ccc3ncc(-c4cnn(CCF)c4)cc3c(=O)c2c1`: it took 610 nM to reach half-maximal inhibition in series [1] (IC50).

On to `CCN1CCC(n2cc(-c3cnc4ccc5ccc(NS(=O)(=O)N(C)C)cc5c(=O)c4c3)cn2)CC1`, for which the IC50 in [1] came out at 55 nM.

In [1], `CN(C)S(=O)(=O)Nc1ccc2ccc3ncc(-c4cnn(-c5ccccn5)c4)cc3c(=O)c2c1` yielded an IC50 of 1300 nM.

As to `Cn1cc(-c2cnc3ccc4ccc(NS(N)(=O)=O)cc4c(=O)c3c2)cn1`, the half-inhibitory concentration (IC50) in series [1] was determined as 990 nM; in series [5] it was 4300 nM.

Consider `CNS(=O)(=O)Nc1ccc2ccc3ncc(-c4cnn(C)c4)cc3c(=O)c2c1`, for which, in series [1], half-maximal inhibition (IC50) required 750 nM. In series [3], this molecule yielded a clearance of 33.8 mL/min/kg. Also, the Vd in series [7] was 2.5 L/kg. In series [4], this molecule showed a half-life of 0.9 h. Besides, the bioavailability in series [8] was 33%.

`CCN(CC)S(=O)(=O)Nc1ccc2ccc3ncc(-c4cnn(C)c4)cc3c(=O)c2c1` yielded an IC50 in series [1] of 2200 nM.

Turning to `CN(Cc1cnccn1)S(=O)(=O)Nc1ccc2ccc3ncc(-c4cnn(C)c4)cc3c(=O)c2c1`, the figures for the IC50 in series [1] and in series [5] were 1100 nM and 7100 nM, respectively. This molecule also showed a half-life in [9] of 0.7 h. This molecule also yielded a clearance in series [10] of 39 mL/min/kg. Moreover, the Vd in [11] is 2.4 L/kg.

`CN(Cc1ccccc1)S(=O)(=O)Nc1ccc2ccc3ncc(-c4cnn(C)c4)cc3c(=O)c2c1`: the IC50 was 50000 nM in series [1] and above 30000 nM in series [5].

The molecule `Cn1cc(-c2cnc3ccc4ccc(NS(=O)(=O)N5CCC5)cc4c(=O)c3c2)cn1` displayed an IC50 in series [1] of 1100 nM. In addition, the Vdss with Rattus norvegicus stood at 0.95 L/kg. In [12], this molecule gave a half-life of 3.3 h. The bioavailability in series [13] amounted to 29%.

In series [1], `Cn1cc(-c2cnc3ccc4ccc(NS(=O)(=O)N5CC(F)C5)cc4c(=O)c3c2)cn1` gave a half-inhibitory concentration (IC50) of 2400 nM. The half-life in series [9] was 1.8 h. Moreover, the clearance in series [10] turned out to be 2.9 mL/min/kg. Further, the Vd in [11] is 0.41 L/kg.

For the molecule `COCCCN(C)S(=O)(=O)Nc1ccc2ccc3ncc(-c4cnn(C)c4)cc3c(=O)c2c1`, the IC50 in series [1] was 1500 nM; in series [5] it was above 30000 nM. In series [9], this molecule had a half-life of 1.3 h. Further, the clearance in [10] amounted to 10.7 mL/min/kg. In addition, the Vd in series [11] came out at 1.1 L/kg.

Consider `CN([C@H]1CCOC1)S(=O)(=O)Nc1ccc2ccc3ncc(-c4cnn(C)c4)cc3c(=O)c2c1`, for which the half-maximal inhibitory concentration (IC50) in series [1] was 570 nM; in series [5], above 30000 nM. Besides, the clearance in [14] was determined as 11 mL/min/kg. Besides, the Vd in series [15] was found to be 1.1 L/kg. For the same molecule, the half-life in series [16] was 1.2 h. Also, in series [17], the bioavailability is 38%.

For the molecule `CN(C[C@H]1COCCO1)S(=O)(=O)Nc1ccc2ccc3ncc(-c4cnn(C)c4)cc3c(=O)c2c1`, the half-inhibitory concentration (IC50) was 210 nM in series [18], 2800 nM in [1], above 30000 nM in series [5] and 14 nM in series [2].

For `CS(=O)(=O)Nc1ccc2ccc3ncc(-c4ccccc4)cc3c(=O)c2c1`, the IC50 was above 50000 nM in [1]; 290 nM in [5]; above 50000 nM against Cytochrome P450 3A4; above 50000 nM at Cytochrome P450 2C9; above 50000 nM on Cytochrome P450 2D6. In [3], this molecule displayed a clearance of 24 mL/min/kg. In [4], the half-life is 0.5 h. Moreover, in series [8], the bioavailability is 2%. The molecule also yielded a logP in series [19] of 3.15. For the same molecule, the concentration in solution in [20] (solubility) came to 0.5 µg/mL (≈ 1.33 µM).

For `CS(=O)(=O)Nc1ccc2ccc3nccc(Cl)c3c(=O)c2c1`, in [2], the IC50 is above 10000 nM.

Molecule `CN(C)S(=O)(=O)Nc1ccc2ccc3ncc(-c4cnn(CC(F)CO)c4)cc3c(=O)c2c1` (racemic) came in with an IC50 in [1] of 270 nM.

In turn, `COCC(F)Cn1cc(-c2cnc3ccc4ccc(NS(=O)(=O)N(C)C)cc4c(=O)c3c2)cn1` (racemic) had an IC50 in series [1] of 54 nM.

In general, IC50 refers to the concentration that gives 50% inhibition. One may read the half-life as the time needed for the level to fall by half in the phase considered. Read a low half-life as rapid decline. As a reminder, the bioavailability is dose-corrected exposure relative to a reference, in per cent. Low values mean little systemic uptake, high ones much systemic uptake. By logP is commonly meant a log measure of how a compound divides between an organic and an aqueous phase. A high value points to higher lipophilicity. As a reminder, the solubility is the dissolved amount per volume that the medium holds. The low end stands for a poorly soluble substance, the high end for a readily soluble substance.
